Target: PKA (Homo sapiens, UniProt P17612)
Test: PKA inhibition, ADP-Glo Kinase Assay

Row | Compound | IC50 [µM]
1 | CC1=C(C(=O)Nc2ccc3[nH]ncc3c2)C(c2ccc(F)c(C(=O)NCc3ccccc3)c2)NC(=O)N1 (centres unmarked) [Compound 12b, 4-(3-(Benzylcarbamoyl)-4-fluorophenyl)-N-(1H-indazol-5-yl)-6-methyl-2-oxo-1,2,3,4-tetrahydropyrimidine-5-carboxamide] | > 100
2 | CC1=C(C(=O)Nc2ccc3[nH]ncc3c2)C(c2ccc(F)c(C(=O)NCc3cccc(F)c3)c2)NC(=O)N1 (centres unmarked) [Compound 12c, 4-(4-Fluoro-3-((3-fluorobenzyl)carbamoyl)phenyl)-N-(1H-indazol-5-yl)-6-methyl-2-oxo-1,2,3,4-tetrahydropyrimidine-5-carboxamide] | > 100
3 | COc1ccccc1CNC(=O)c1cc(C2NC(=O)NC(C)=C2C(=O)Nc2ccc3[nH]ncc3c2)ccc1F (centres unmarked) [Compound 12e, 4-(4-Fluoro-3-((2-methoxybenzyl)carbamoyl)phenyl)-N-(1H-indazol-5-yl)-6-methyl-2-oxo-1,2,3,4-tetrahydropyrimidine-5-carboxamide] | > 100
4 | COc1cccc(CNC(=O)c2cc(C3NC(=O)NC(C)=C3C(=O)Nc3ccc4[nH]ncc4c3)ccc2F)c1 (centres unmarked) [Compound 12f, 4-(4-Fluoro-3-((3-methoxybenzyl)carbamoyl)phenyl)-N-(1H-indazol-5-yl)-6-methyl-2-oxo-1,2,3,4-tetrahydropyrimidine-5-carboxamide] | > 100
5 | COc1ccc(CNC(=O)c2cc(C3NC(=O)NC(C)=C3C(=O)Nc3ccc4[nH]ncc4c3)ccc2F)cc1 (centres unmarked) [Compound 12g, 4-(4-Fluoro-3-((4-methoxybenzyl)carbamoyl)phenyl)-N-(1H-indazol-5-yl)-6-methyl-2-oxo-1,2,3,4-tetrahydropyrimidine-5-carboxamide] | > 100
6 | CC1=C(C(=O)Nc2ccc3[nH]ncc3c2)C(c2ccc(F)c(C(=O)NCCc3ccccn3)c2)NC(=O)N1 (centres unmarked) [Compound 12i, 4-(4-Fluoro-3-((2-(pyridin-2-yl)ethyl)carbamoyl)phenyl)-N-(1H-indazol-5-yl)-6-methyl-2-oxo-1,2,3,4-tetrahydropyrimidine-5-carboxamide] | > 100
7 | CC1=C(C(=O)Nc2ccc3[nH]ncc3c2)C(c2ccc(F)c(C(=O)NCCc3ccncc3)c2)NC(=O)N1 (centres unmarked) [Compound 12j, 4-(4-Fluoro-3-((2-(pyridin-4-yl)ethyl)carbamoyl)phenyl)-N-(1H-indazol-5-yl)-6-methyl-2-oxo-1,2,3,4-tetrahydropyrimidine-5-carboxamide] | > 100
8 | CC1=C(C(=O)Nc2ccc3[nH]ncc3c2)C(c2ccc(F)c(C(=O)NCc3c(C(F)(F)F)cccc3C(F)(F)F)c2)NC(=O)N1 (centres unmarked) [Compound 12o, 4-(3-((2,6-Bis(trifluoromethyl)benzyl)carbamoyl)-4-fluorophenyl)-N-(1H-indazol-5-yl)-6-methyl-2-oxo-1,2,3,4-tetrahydropyrimidine-5-carboxamide] | > 100
9 | CC1=C(C(=O)Nc2ccc3[nH]ncc3c2)C(c2ccc(F)c(C(=O)NCc3cc(C(F)(F)F)cc(C(F)(F)F)c3)c2)NC(=O)N1 (centres unmarked) [Compound 12p, 4-(3-((3,5-Bis(trifluoromethyl)benzyl)carbamoyl)-4-fluorophenyl)-N-(1H-indazol-5-yl)-6-methyl-2-oxo-1,2,3,4-tetrahydropyrimidine-5-carboxamide] | > 100
10 | CC1=C(C(=O)Nc2ccc3[nH]ncc3c2)C(c2ccc(F)c(C(=O)NCc3ncccc3C)c2)NC(=O)N1 (centres unmarked) [Compound 12q, 4-(4-Fluoro-3-(((3-methylpyridin-2-yl)methyl)carbamoyl)phenyl)-N-(1H-indazol-5-yl)-6-methyl-2-oxo-1,2,3,4-tetrahydropyrimidine-5-carboxamide] | > 100
11 | CC1=C(C(=O)Nc2ccc3[nH]ncc3c2)C(c2ccc(F)c(C(=O)NCCc3c(C)cccc3C)c2)NC(=O)N1 (centres unmarked) [Compound 12r, 4-(3-((2,6-Dimethylphenethyl)carbamoyl)-4-fluorophenyl)-N-(1H-indazol-5-yl)-6-methyl-2-oxo-1,2,3,4-tetrahydropyrimidine-5-carboxamide] | > 100
